Test [1] deals with MCF7. The test is described as follows: Antiproliferative activity against human MCF7 cells assessed as reduction in cell viability incubated for 6 days by CellTiter-Glo reagent based luminescence analysis. On the technique in general: In ATP-based viability assays light output follows the ATP content of the culture.
Test [2] is described as follows: Antiproliferative activity against endocrine-resistant human MCF7 Tam1 cells assessed as inhibition of cell growth. Conditions: Tamoxifen-resistant MCF7.
Test [3] relates to MCF7. The test is described as follows: Antiproliferative activity against human MCF7 cells harboring ER-alpha Y537S mutant assessed as inhibition of cell growth.
Test [4] has as its target T1, Estrogen receptor (Homo sapiens, UniProt P03372).
T1 sequence (P03372 whole entry): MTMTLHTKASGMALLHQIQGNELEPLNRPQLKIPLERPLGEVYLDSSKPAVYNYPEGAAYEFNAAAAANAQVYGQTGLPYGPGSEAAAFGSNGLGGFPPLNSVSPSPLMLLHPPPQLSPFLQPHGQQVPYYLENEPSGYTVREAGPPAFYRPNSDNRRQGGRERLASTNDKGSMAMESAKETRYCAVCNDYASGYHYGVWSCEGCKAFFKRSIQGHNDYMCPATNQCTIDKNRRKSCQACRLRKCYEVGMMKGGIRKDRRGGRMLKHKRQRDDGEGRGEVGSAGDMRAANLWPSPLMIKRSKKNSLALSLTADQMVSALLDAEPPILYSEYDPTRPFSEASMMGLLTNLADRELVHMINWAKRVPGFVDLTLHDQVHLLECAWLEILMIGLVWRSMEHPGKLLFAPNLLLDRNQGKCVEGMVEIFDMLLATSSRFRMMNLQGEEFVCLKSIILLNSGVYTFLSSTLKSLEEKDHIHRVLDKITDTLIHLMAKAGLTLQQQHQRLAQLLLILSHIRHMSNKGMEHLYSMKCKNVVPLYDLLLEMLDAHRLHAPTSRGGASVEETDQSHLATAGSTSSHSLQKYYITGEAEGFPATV
The test is described as follows: Induction of ER-alpha degradation in human MCF7 cells incubated for 24 hrs by In-Cell Western blot analysis. The class given is cell-based.

Test [5] has as its target Voltage-gated inwardly rectifying potassium channel KCNH2 (Homo sapiens, UniProt Q12809). The test is described as follows: Inhibition of hERG expressed in CHO cells assessed as inhibition of channel current by automated Qpatch clamp analysis.

Sequence of Voltage-gated inwardly rectifying potassium channel KCNH2 (Q12809 whole entry): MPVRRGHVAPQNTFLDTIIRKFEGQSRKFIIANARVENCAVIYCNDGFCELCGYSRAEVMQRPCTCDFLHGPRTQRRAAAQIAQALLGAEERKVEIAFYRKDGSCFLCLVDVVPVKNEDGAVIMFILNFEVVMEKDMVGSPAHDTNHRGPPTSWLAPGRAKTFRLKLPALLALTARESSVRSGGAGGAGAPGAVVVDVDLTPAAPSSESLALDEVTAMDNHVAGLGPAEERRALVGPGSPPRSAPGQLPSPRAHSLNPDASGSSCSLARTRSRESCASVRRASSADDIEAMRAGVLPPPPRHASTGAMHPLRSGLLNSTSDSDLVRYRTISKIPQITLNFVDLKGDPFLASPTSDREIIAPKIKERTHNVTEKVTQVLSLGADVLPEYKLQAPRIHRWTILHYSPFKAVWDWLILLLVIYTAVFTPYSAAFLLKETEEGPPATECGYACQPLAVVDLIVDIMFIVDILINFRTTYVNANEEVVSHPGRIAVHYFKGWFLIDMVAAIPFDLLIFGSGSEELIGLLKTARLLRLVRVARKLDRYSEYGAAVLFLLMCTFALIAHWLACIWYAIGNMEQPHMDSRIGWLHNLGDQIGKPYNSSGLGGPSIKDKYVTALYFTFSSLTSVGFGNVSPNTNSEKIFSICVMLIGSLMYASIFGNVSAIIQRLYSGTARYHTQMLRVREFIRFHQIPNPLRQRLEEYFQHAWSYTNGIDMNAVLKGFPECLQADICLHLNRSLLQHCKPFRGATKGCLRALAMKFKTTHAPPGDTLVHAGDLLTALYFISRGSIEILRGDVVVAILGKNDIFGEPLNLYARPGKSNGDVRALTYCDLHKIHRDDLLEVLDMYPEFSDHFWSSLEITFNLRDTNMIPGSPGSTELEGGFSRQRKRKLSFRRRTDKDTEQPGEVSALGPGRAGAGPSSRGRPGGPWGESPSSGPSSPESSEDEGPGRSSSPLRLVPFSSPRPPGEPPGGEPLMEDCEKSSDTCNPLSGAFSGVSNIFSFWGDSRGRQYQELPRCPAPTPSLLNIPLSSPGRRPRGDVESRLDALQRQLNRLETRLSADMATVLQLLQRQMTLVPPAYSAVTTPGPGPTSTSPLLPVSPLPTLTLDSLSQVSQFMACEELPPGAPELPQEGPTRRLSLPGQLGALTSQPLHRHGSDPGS

As for `O=C1CC[C@H](N2Cc3cc(N4CCN(CC5CCN(c6ccc([C@@H]7c8ccc(O)cc8CC[C@@H]7c7ccccc7)cc6)CC5)CC4)ccc3C2=O)C(=O)N1` [VEPDEGESTRANT], the concentration for half-maximal inhibition (IC50) – broadly, the concentration needed to halve the response being measured – in test [1] (Homo sapiens, MCF7, 144 h) is 2.7 nM; in test [2] it was 2.12 nM; in test [3], 133 nM.
`Oc1ccc2c(c1)OCC(c1ccc(F)cc1F)=C2c1ccc(OCCN2CC(CF)C2)cc1`: the half-maximal inhibitory concentration (IC50) in test [1] (Homo sapiens, MCF7, 144 h) worked out at 58 nM.
`COc1cc(F)ccc1[C@H]1CSc2c(ccc3[nH]ncc23)[C@H]1c1ccc(OCCN2CC(CF)C2)cc1` (racemic): the half-maximal inhibitory concentration (IC50) in test [1] (Homo sapiens, MCF7, 144 h) was determined as 7.4 nM. Moreover, in test [4], the DC50 (usually the concentration giving 50% degradation) was 6.3 nM.
Take `Oc1ccc2c(c1)OC[C@H](c1ccc(Cl)cc1F)[C@@H]2c1ccc(OCCN2CC(CF)C2)cc1` (racemic): in test [1] (Homo sapiens, MCF7, 144 h), the IC50 worked out at 4.2 nM.
Same read-out and setting: to `Oc1ccc2c(c1)OC[C@H](c1ccc(F)cc1F)[C@@H]2c1ccc(O[C@H]2CCN(CCCF)C2)cc1` (racemic) belongs 7.7 nM.
On to `Oc1ccc2c(c1)OC[C@H](c1ccc(F)cc1F)[C@@H]2c1cc(F)c(OCCN2CC(CF)C2)c(F)c1` (racemic), for which the IC50 in test [1] (Homo sapiens, MCF7, 144 h) is 1.4 nM; in test [5] it was 1900 nM.
Turning to `Oc1ccc2c(c1)OC[C@H](c1ccc(F)cc1F)[C@@H]2c1ccc(OCCN2CC(CF)C2)cc1F` (racemic), the IC50 in test [5] is 5400 nM.
For `Cc1cc(F)ccc1[C@H]1CSc2cc(O)ccc2[C@H]1c1ccc(OCCN2CC(CF)C2)cc1` (racemic), the IC50 in test [1] (Homo sapiens, MCF7, 144 h) worked out at 0.8 nM.
On the same count and under the same terms, to `N#Cc1cc(F)ccc1[C@H]1COc2cc(O)ccc2[C@H]1c1ccc(OCCN2CC(CF)C2)cc1` (racemic) belongs 4.9 nM.
Turning to `Oc1ccc2c(c1)OC[C@H](c1cc(F)c(F)cc1F)[C@@H]2c1ccc(OCCN2CC(CF)C2)cc1` (racemic), the IC50 in test [5] came out at 2800 nM.
With `Oc1ccc2c(c1)OCC[C@H](c1ccc(F)cc1F)[C@@H]2c1ccc(OCCN2CC(CF)C2)cc1` (racemic), the IC50 in test [1] (Homo sapiens, MCF7, 144 h) stood at 47 nM.
With `O=C(CN1CC(CF)C1)Nc1ccc([C@@H]2c3ccc(O)cc3OC[C@@H]2c2ccc(F)cc2F)cc1` (racemic), in test [1] (Homo sapiens, MCF7, 144 h), the IC50 came to 243 nM.
On the same count and under the same terms, to `Oc1ccc2c(c1)OC[C@H](C1CCOCC1)[C@@H]2c1ccc(OCCN2CC(CF)C2)cc1` (racemic) belongs 1.6 nM.
Still for that read-out and setting: to `COc1cc(F)ccc1[C@@H]1CSc2cc(O)ccc2[C@@H]1c1ccc(OCCN2CC(CF)C2)cc1` belongs 25 nM.
Take `Oc1ccc2c(c1)OC[C@H](c1ccc(F)cc1F)[C@@H]2c1ccc(OCCN2CC(CF)C2)c(F)c1` (racemic): the IC50 in test [5] is 6400 nM.
For `Oc1ccc2c(c1)OC[C@H](c1ccc(F)cc1F)[C@@H]2c1ccc(NCCN2CC(CF)C2)cc1` (racemic), in test [1] (Homo sapiens, MCF7, 144 h), the IC50 came out at 9.3 nM. In test [4], this molecule returned a DC50 of 1.7 nM.
For `Cn1cc([C@H]2COc3cc(O)ccc3[C@H]2c2ccc(OCCN3CC(CF)C3)cc2)cn1` (racemic), in that order: 38 nM and 98 nM.
Consider `COc1cc(F)ccc1[C@H]1CS(=O)(=O)c2cc(O)ccc2[C@H]1c1ccc(OCCN2CC(CF)C2)cc1` (racemic), for which the IC50 is 1.6 nM in test [1] (Homo sapiens, MCF7, 144 h) and greater than 40000 nM in test [5].
On to `Oc1ccc2c(c1)SC[C@H](c1cc(F)c(F)cc1F)[C@@H]2c1ccc(OCCN2CC(CF)C2)cc1` (racemic), for which the IC50 in test [1] (Homo sapiens, MCF7, 144 h) came to 0.4 nM.
As to `COc1cc(F)ccc1[C@H]1CSc2cc(O)ccc2[C@H]1c1ccc(OCCN2CC(CF)C2)c(F)c1` (racemic), the IC50 in test [1] (Homo sapiens, MCF7, 144 h) was 0.7 nM; in test [5], greater than 40000 nM.
As to `FCC1CN(CCOc2ccc([C@@H]3c4ccc5[nH]ncc5c4SC[C@@H]3c3cc(F)c(F)cc3F)cc2)C1` (racemic), the IC50 in test [1] (Homo sapiens, MCF7, 144 h) was 5.8 nM. The DC50 in test [4] stood at 6.6 nM.
For `COc1ccc([C@H]2COc3cc(O)ccc3[C@H]2c2ccc(OCCN3CC(CF)C3)cc2)c(F)c1` (racemic), the IC50 was 0.87 nM in test [1] (Homo sapiens, MCF7, 144 h) and 3500 nM in test [5].
For `Oc1ccc2c(c1)OC[C@H](c1ccc(F)cc1F)[C@@H]2c1ccc(OC2CN(CCCF)C2)cc1` (racemic), in test [1] (Homo sapiens, MCF7, 144 h), the IC50 amounted to 7.7 nM. The molecule also returned a DC50 in test [4] of 2.8 nM.
Consider `COc1ccc([C@H]2COc3cc(O)ccc3[C@H]2c2ccc(OCCN3CC(CF)C3)cc2)cn1` (racemic), for which the IC50 in test [1] (Homo sapiens, MCF7, 144 h) is 0.86 nM.
With `Oc1ccc2c(c1)OC[C@H](c1ccc(F)cc1F)[C@@H]2c1ccc(NC2CN(CCCF)C2)cc1` (racemic), the IC50 in test [1] (Homo sapiens, MCF7, 144 h) stood at 3.1 nM; in test [5], 3600 nM. In test [4], this molecule had a DC50 of 1 nM.
As for `COc1cc(F)ccc1[C@H]1COc2cc(O)ccc2[C@H]1c1ccc(OCCN2CC(CF)C2)cc1` (racemic), the IC50 in test [1] (Homo sapiens, MCF7, 144 h) stood at 0.56 nM; in test [5], 4800 nM.
Consider `Oc1ccc2c(c1)OC[C@H](c1ccc(F)cc1F)[C@@H]2c1ccc(OCCN2CC(CF)C2)nc1` (racemic), for which the IC50 in test [1] (Homo sapiens, MCF7, 144 h) worked out at 1.7 nM.
In the case of `Oc1ccc2c(c1)CCC[C@H](c1ccc(F)cc1F)[C@@H]2c1ccc(OCCN2CC(CF)C2)cc1` (racemic), the IC50 is 19 nM in test [1] (Homo sapiens, MCF7, 144 h) and greater than 40000 nM in test [5]. Besides, it took 22.7 nM to reach half-maximal degradation in test [4] (DC50).
With `Oc1ccc2c(c1)SC[C@H](c1ccc(F)cc1F)[C@@H]2c1ccc(OCCN2CC(CF)C2)cc1` (racemic), the IC50 in test [1] (Homo sapiens, MCF7, 144 h) was 0.6 nM; in test [5] it was 13000 nM.
`COc1cc(F)ccc1[C@H]1CSc2cc(O)ccc2[C@H]1c1ccc(OCCN2CC(CF)C2)cc1` (racemic): the IC50 in test [1] (mcf7) is 0.6 nM; in test [5], greater than 40000 nM.
On to `Oc1ccc2c(c1)OC[C@H](c1ccc(F)cc1F)[C@@H]2c1ccc(OCCN2CC(CF)C2)cc1` (racemic), for which the IC50 in test [1] (Homo sapiens, MCF7, 144 h) was 1.2 nM.
For `COc1cc(F)ccc1[C@H]1CSc2cc(C(=O)O)ccc2[C@H]1c1ccc(OCCN2CC(CF)C2)cc1` (racemic), the concentration for half-maximal inhibition (IC50) in test [1] (Homo sapiens, MCF7, 144 h) is 1.7 nM. Besides, the DC50 in test [4] came out at 9.6 nM.
The matching figures for `CC(=O)N1CCC([C@H]2COc3cc(O)ccc3[C@H]2c2ccc(OCCN3CC(CF)C3)cc2)CC1` (racemic): 9.5 nM and 24 nM.
In the case of `Oc1ccc2c(c1)SC[C@@H](c1cc(F)c(F)cc1F)[C@H]2c1ccc(OCCN2CC(CF)C2)cc1`, the IC50 in test [1] (Homo sapiens, MCF7, 144 h) is 714 nM.
With `CS(=O)(=O)N1CCC([C@H]2COc3cc(O)ccc3[C@H]2c2ccc(OCCN3CC(CF)C3)cc2)CC1` (racemic), the IC50 in test [1] (Homo sapiens, MCF7, 144 h) came to 6.2 nM. The 50% degradation concentration (DC50) in test [4] worked out at 8.8 nM.
As to `COc1ccc([C@H]2CSc3cc(O)ccc3[C@H]2c2ccc(OCCN3CC(CF)C3)cc2)c(F)c1` (racemic), in test [1] (Homo sapiens, MCF7, 144 h), the 50% inhibitory concentration (IC50) is 0.4 nM.
On to `COc1cc(F)ccc1[C@H]1CSc2cc(O)ccc2[C@H]1c1ccc(NC2CN(CCCF)C2)cc1` (racemic), for which the IC50 in test [1] (Homo sapiens, MCF7, 144 h) is 0.9 nM; in test [5] it was 22000 nM.
`COc1cc([C@@H]2c3ccc(O)cc3OC[C@@H]2c2ccc(F)cc2F)ccc1OCCN1CC(CF)C1` (racemic): the IC50 in test [1] (Homo sapiens, MCF7, 144 h) was determined as 4.8 nM. This molecule showed a DC50 in test [4] of 4.5 nM.
Regarding `CC1(C)C[C@H](c2ccc(F)cc2F)[C@H](c2ccc(OCCN3CC(CF)C3)cc2)c2ccc(O)cc21` (racemic), the half-inhibitory concentration (IC50) in test [1] (Homo sapiens, MCF7, 144 h) turned out to be 8.8 nM.
As for `C[C@@H]1Cc2c(ccc3[nH]ncc23)[C@@H](c2ccc(NC3CN(CCCF)C3)cn2)N1CC(F)(F)F` [CAMIZESTRANT], the IC50 in test [1] (Homo sapiens, MCF7, 144 h) amounted to 0.68 nM; in test [3] it was 21.2 nM.

Values taken from ChEMBL document CHEMBL6083291, “Discovery of Thiochroman Derivatives as Potent, Oral Selective Estrogen Receptor Degraders and Antagonists for the Treatment of Endocrine-Resistant Breast Cancer” (J Med Chem, 2024).
